Reference: patent publication US20210368837A1, “BOEHMERIA NIVEA COMPOSITIONS AND METHODS FOR TASTE MODULATION” (INTERNATIONAL FLAVORS & FRAGRANCES INC., priority 2018, published 2021)

Legend:
[1] = Descriptive sensory evaluation of traumatic acid and 3-dodecenedioic acid in sugar water; settings: 5 ppm in sugar water (4% sucrose), summary statement
Description: Sugar water (4% sucrose in drinking water) was prepared and used as a base solution. Traumatic acid (purchased from Cayman Chemical Company) and 3-dodecenedioic acid (isolated from a B. nivea extract) were added to the sugar water and taste descriptive sensory evaluations were performed (Table 2).

[2] = Comparison of sweetness and mouthfeel enhancement and off-flavor masking of sebacic acid with analogs; settings: at 2 ppm; analogs: adipic, pimelic, suberic, undecanedioic, dodecanedioic, 1,11-undecanedicarboxylic, tetradecanedioic, hexadecanedioic acid
[3] = Descriptive sensory evaluation of traumatic acid in different applications
Description: Descriptive sensory evaluations were carried out using different amounts of traumatic acid in different applications.

[4] = Descriptive sensory evaluation of sebacic acid in different applications
Description: Descriptive sensory evaluations were carried out using different amounts of sebacic acid in different applications.

Compound	Enhancement of sweetness and mouthfeel of sugar water [1]	Sweetness and mouthfeel enhancement as well as off-flavor masking, compared among dicarboxylic acids [2]	Taste Evaluation ([3]; traumatic acid 40 ppm in 3% Sugar + 0.05% Citric Acid Water Solution)	Taste Evaluation ([3]; traumatic acid 40 ppm in Water)	Taste Evaluation ([4]; sebacic acid 40 ppm in 3% Sugar + 0.05% Citric Acid Water Solution)	Taste Evaluation ([4]; sebacic acid 40 ppm in Water)
O=C(O)C=CCCCCCCCCC(=O)O [Traumatic acid, 2-dodecenedioic acid]	enhanced the sweetness and mouthfeel of sugar water	the strongest and the longest-lasting effect	Fatty and oily	Fatty and oily	–	–
O=C(O)CC=CCCCCCCCC(=O)O [3-Dodecenedioic acid, 3-dodecenedioic acid]	enhanced the sweetness and mouthfeel of sugar water	the strongest and the longest-lasting effect	–	–	–	–
O=C(O)CCCCCCCCC(=O)O [Sebacic Acid, decanedioic acid]	–	–	–	–	Fatty and oily	Fatty and oily
